# Laboratory results published in US11318190B2, “Methods and compositions for treating liver disease” (UNITED STATES GOVERNMENT AS REPRESENTED BY THE DEPARTMENT …, priority 2017, dated 2022).
# “Also recorded” adds a separate entry of the source.
# Experiments:
# dnTGF-βRII mice = dnTGF-βRII mice 32-34 wk (late stage PBC model) treated 1 wk by osmotic minipump; type: in vivo, mouse; settings: for intrahepatic bile duct mass (IBDM, CK-19): 1 wk minipump
# Description: Briefly, we used wild-type (WT), dnTGFβRII 12 wk and dnTGFβRII 34 wk mice treated with control or SR antagonist (SCT 5-27) minipump (10 μg/kg/day) for 1 wk. Hepatic damage was shown by H&E. IBDM and cholangiocyte proliferation were measured by immunohistochemistry for CK-19 and Ki67, respectively. Biliary apoptosis was evaluated by TUNEL staining. Senescence was measured in cholangiocytes by immunofluorescence for CCL2 or p16 co-stained with CK-19 (to image bile ducts) and SA-β-Galactosidase activity. Hepatic fibrosis was assessed by qPCR for collagen-1a and α-SMA in total liver, and quantification of Sirius Red staining. Hepatic stellate cell (HSC) activation was evaluated by immunofluorescence (IF) for Syp-9. HSC senescence was evaluated by IF for CCL2 or p16 co-stained with desmin (to visualize HSCs). Secretin levels in serum and bile were measured by EIA. Bile and serum were obtained from human control, early PBC and advanced PBC patients, and secretin was evaluated by EIA.
# All animal procedures were performed according to protocols approved by the Baylor Scott & White Health IACUC Committee. Transgenic mice expressing a dominant-negative form of the human transforming growth factor-beta receptor II (dnTGF-βRII) were obtained from Dr. M. Eric Gershwin at UC Davis Health (Sacramento, Calif.), and background-matched wild-type (WT, strain C57BL/6) mice were purchased from Charles River Laboratories (Wilmington, Mass.); the breeding colony is established in our animal facility. Animals were maintained in micro-isolator cages in a temperature-controlled environment with 12/12-hr light/dark cycles and fed ad libitum standard chow with free access to drinking water. Studies were performed in 12 wk-old WT mice, and 12 wk-old (mimic early stage PBC) and 32 wk-old (mimic late stage PBC) female and male dnTGF-βRII mice (25-30 gm) that were treated with either saline, secretin (Sct; 2.5 nmoles/kg body weight per day; Bachem, Torrance, Calif.) or the secretin receptor (SR) antagonist, Sec 5-27 (10 μg/kg body weight per day; Thermo Fisher Scientific, Waltham, Mass.) for 1 wk by intraperitoneally implanted osmotic minipump. Liver tissue samples and blocks (formalin-fixed, paraffin-embedded and OCT-embedded), serum, bile, cholangiocytes, and cholangiocyte supernatants (after incubation at 37° C. for 4 hr) were collected as described.
# Hematoxylin and eosin (H&E) staining was performed in formalin-fixed, paraffin-embedded liver sections (4-5 μm, 3 samples from 3 different animals) to determine liver morphology. H&E stained liver sections were evaluated by a board-certified pathologist to assess the degree of lobular damage, hepatic necrosis and portal inflammation. At least 10 different portal areas were evaluated for each parameter. Liver sections were examined in a coded fashion by BX-51 light microscopy (Olympus, Tokyo, Japan) equipped with a camera (See, Mancinelli, R et al., Ischemia reperfusion of the hepatic artery induces the functional damage of large bile ducts by changes in the expression of angiogenic factors. Am J Physiol Gastrointest Liver Physiol 2015; 309:G865-873 (2015); Taffetani S et al., Prolactin stimulates the proliferation of normal female cholangiocytes by differential regulation of Ca2+-dependent PKC isoforms, BMC Physiol 7:6 (2007)).
# Serum levels of alkaline phosphatase (ALP) and γ-glutamyltransferase (γGT) are commonly used to diagnose PBC (Heathcote, E J, Management of primary biliary cirrhosis. The American Association for the Study of Liver Diseases practice guidelines, Hepatology 31:1005-1013 (2000)); therefore, were measured serum levels of ALP and γGT in mouse serum samples using the Alkaline Phosphatase Assay Kit and γ-Glutamyltransferase Activity Colorimetric Assay Kit, respectively (Abcam; Cambridge, Mass.).
# Early stage PBC is identified by cholangiocyte proliferation, whereas late stage PBC is characterized by ductopenia. […]
# IMCLs = IMCLs treated with Sct with/without microRNA 125b mimic precursor, TGF-β1 or r-VEGFA (Example 4); type: cell-based, mouse; settings: Sct 10 nM, 12 hr
# Description: Cholangiocytes were obtained by immunoaffinity separation, Cholangiocytes were obtained by immunoaffinity separation as described herein above, using a monoclonal antibody (a gift from Dr. R. Faris, Brown University, Providence, R.I.) that is expressed by all intrahepatic cholangiocytes. Cell viability (greater than 97%) was assessed by trypan blue exclusion. HSCs were isolated by LCM as described herein above. Frozen liver sections (n=3, 10 μm thick) were incubated overnight with an antibody against desmin (marker of stellate cells). Following staining, desmin-positive HSCs were dissected from the slides by a LCM system Leica LMD7000 (Buffalo Grove, Ill.) and collected into a PCR tube before being analyzed. The RNA from HSCs was extracted with the Arcturus PicoPure RNA isolation kit (Thermo Fisher Scientific CO, Mountain View, Calif.). The in vitro studies were performed in our immortalized murine biliary cell lines (IMCLs) and human hepatic stellate cell lines (HHSteCs, Sciencell, Carlsbad, USA).
# In biliary supernatants, the levels of TGF-β1 were measured by ELISA kits. […] We also evaluated by immunofluorescence the expression of VEGFR-2 in cell smears of IMCLs and HHSteCs. […]
# [1] = dnTGF-βRII 32/34 wk, vs saline treated
substance,measurement,setting,value
secretin [Sct],"biliary senescence (p16, p18, p21, CCL2)",dnTGF-βRII mice; dnTGF-βRII 32/34 wk,reduced
same,cholangiocyte apoptosis (TUNEL),dnTGF-βRII mice; dnTGF-βRII 32/34 wk,reduced
same,"collagen content / deposition (Sirius Red), hepatic fibrosis",dnTGF-βRII mice; dnTGF-βRII 32/34 wk,decreased; also recorded: reduced
same,"Sct, SR, CFTR and AE2 expression",dnTGF-βRII mice; [1],increased expression
same,"intrahepatic bile duct mass (IBDM, CK-19)",dnTGF-βRII mice; [1],increased
same,"intrahepatic bile duct mass (IBDM, CK-19)","dnTGF-βRII mice; dnTGF-βRII 32/34 wk, vs saline treated, listed as secretin",increased biliary mass in the late stage PBC mice back to normal levels
same,"collagen content / deposition (Sirius Red), hepatic fibrosis","dnTGF-βRII mice; dnTGF-βRII 32/34 wk, listed as secretin",significantly reduced
same,HSC activation (SYP-9),dnTGF-βRII mice; dnTGF-βRII 34 wk,reduced
same,biliary growth / cholangiocyte proliferation,dnTGF-βRII mice; dnTGF-βRII 34 wk,increased
same,liver damage (H&E),dnTGF-βRII mice; dnTGF-βRII 34 wk,ameliorate; also recorded: reduced
same,secretin levels (serum; serum and bile),dnTGF-βRII mice; dnTGF-βRII 34 wk,increased
same,"Liver inflammation, Kupffer cell number",dnTGF-βRII mice; dnTGFβRII 12 and 34 wk as printed,reduced
same,TBA levels,dnTGF-βRII mice; dnTGFβRII 34 wk,reduced
same,serum levels of ALP and γGT,dnTGF-βRII mice; late stage PBC model,reduced
same,TGF-β1 mRNA expression of IMCLs and TGF-β1 levels in IMCLs supernatant,IMCLs,increased
